Measured values from article PMC6219549, “Emergence of a cholecystokinin/sulfakinin signalling system in Lophotrochozoa” (Scientific Reports, 2018).
“Also recorded” adds a separate entry of the source. Read-outs that look alike come from different tables or passages of the source. Where a SMILES comes first, the peptide text is derived from it. Where no end group is shown, it is not given here. [ ]: non-standard residue; d: D form. sY = N[C@@H](Cc1ccc(OS(=O)(=O)O)cc1)C(=O)O; pGlu = O=C1CC[C@@H](C(=O)O)N1

Columns and labels:
Cragi-CCKR1 = molecular target: T1, Cragi-CCKR1 (Magallana gigas, UniProt A0A345BJM8); assay: Calcium fluorescence (mobilization) assay, Cragi-CCKR1 in HEK293T cells; assay type: cell-based, Crassostrea gigas; conditions: for EC50: HEK293T transiently transfected with Cragi-CCKR1, Fluo-4 calcium response, 37 °C, read-out: EC50 for receptor activation, Cragi-CCKR1
T1 sequence (A0A345BJM8 1-408): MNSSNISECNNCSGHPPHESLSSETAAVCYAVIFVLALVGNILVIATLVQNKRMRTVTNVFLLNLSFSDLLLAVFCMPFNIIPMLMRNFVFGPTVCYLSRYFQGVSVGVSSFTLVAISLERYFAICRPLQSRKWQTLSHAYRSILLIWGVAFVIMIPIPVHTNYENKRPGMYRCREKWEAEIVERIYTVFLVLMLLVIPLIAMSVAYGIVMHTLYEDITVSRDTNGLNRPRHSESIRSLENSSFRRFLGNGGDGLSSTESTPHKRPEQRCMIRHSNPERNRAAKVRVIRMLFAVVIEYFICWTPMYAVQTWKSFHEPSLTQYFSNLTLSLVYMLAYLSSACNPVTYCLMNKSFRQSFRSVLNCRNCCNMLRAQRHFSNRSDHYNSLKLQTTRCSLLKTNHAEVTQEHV
From the text: (§1) The CDS of the Cragi-CCKR genes were amplified by PCR (Pfu DNA polymerase, Promega) using gene-specific sense primers harbouring a Kozak consensus sequence and antisense primers (Supplementary Table 3). Ten nanogram of plasmid DNA (Pal 17.3 vector, Evrogen) from a C. gigas “all developmental stages and adult central nervous system” directional and normalized cDNA library[62] was used as template. The resulting PCR products were directionally cloned into the pcDNA3.1 expression vector (Invitrogen). The correct insertion of the PCR products was confirmed by sequencing. Human Embryonic Kidney (HEK293T) cells were transiently transfected with the Cragi-CCKR/pcDNA3.1 constructs using Fugene HD (Promega) according to the manufacturer’s instructions. As a first step, co-transfection was done with a pcDNA3.1 expression construct for the human Gα16 subunit, a promiscuous G protein that can direct intracellular signalling of GPCRs to the release of calcium via the phospholipase Cβ pathway, regardless of the endogenous G protein coupling of the receptor[63]. To assess receptor activity independent of Gα16, calcium responses were measured in cells expressing only the Cragi-CCKRs. Cells for negative control experiments were transfected with empty pcDNA3.1 and Gα16/pcDNA3.1 constructs.
(§2) Activation of the Cragi-CCKRs by candidate peptide ligands was monitored using a fluorescence-based calcium mobilization assay. Briefly, transfected HEK293T cells were loaded with Fluo-4 Direct (Invitrogen) plus probenecid (qsp 2.5 mM final in the cell) (Molecular Probes) for 1 hour (45 min at 37 °C and 15 min at room temperature). Excitation of the fluorophore was done at 488 nm. The calcium response was measured for 2 min at 525 nm using a FLEXstation 3 (Molecular Devices) at 37 °C. Data were analysed using SoftMax Pro (Molecular Devices). Candidate ligands were first tested at a final concentration of 10^−5 M. Concentration-response measurements of activating ligands were conducted in quadruplicate and for at least three independent experiments. Half maximal effective concentrations (EC50 values) were calculated from concentration-response curves that were constructed using nonlinear regression analysis with a sigmoidal dose-response equation using Prism 5.0 (GraphPad software, USA).

Cragi-CCKR2 = molecular target: T2, Cragi-CCKR2 (Magallana gigas, UniProt A0A345BJM9); assay: Calcium fluorescence (mobilization) assay, Cragi-CCKR2 in HEK293T cells; assay type: cell-based, Crassostrea gigas; conditions: for EC50: HEK293T transiently transfected with Cragi-CCKR2, Fluo-4 calcium response, 37 °C, read-out: EC50 for receptor activation, Cragi-CCKR2
T2 sequence (A0A345BJM9 1-406): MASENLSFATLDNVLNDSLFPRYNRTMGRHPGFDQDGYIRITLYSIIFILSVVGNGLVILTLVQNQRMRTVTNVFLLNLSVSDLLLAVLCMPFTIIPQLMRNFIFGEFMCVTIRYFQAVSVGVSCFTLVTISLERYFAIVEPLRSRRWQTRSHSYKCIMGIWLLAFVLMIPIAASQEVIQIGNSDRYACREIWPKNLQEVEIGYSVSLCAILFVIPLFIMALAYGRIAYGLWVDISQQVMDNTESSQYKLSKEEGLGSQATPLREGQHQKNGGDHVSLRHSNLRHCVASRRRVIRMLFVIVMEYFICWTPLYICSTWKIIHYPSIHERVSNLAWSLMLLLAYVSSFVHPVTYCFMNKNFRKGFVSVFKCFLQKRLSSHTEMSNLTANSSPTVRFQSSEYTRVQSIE
From the text: as §1, §2

oyster hindgut = assay: Myotropic bioassay on oyster hindgut; parameters: species or system Crassostrea gigas; conditions: for Duration, Relaxation (R) / Duration, Contraction (C) / Duration, Period (P) / Amplitude (A): mean ± SEM of four experiments, SEM; for Minimal threshold concentration inducing hindgut contraction: isolated oyster hindgut, perfused muscle chamber
Method: The myotropic bioassay was performed using oyster's hindgut according to the protocol described earlier for the cuttlefish oviduct. The muscle chamber was perfused at a flow rate of 0.67 mL.min^-1. Increasing concentrations of synthetic peptides (Cragi-CCK1, [[…], [[…], [[…]) were injected in the perfusing flow using a three-way valve to avoid mechanical stress. The flow of the samples into the muscle chamber was traced by adding phenol red.

[1] = high concentrations, HEK293T, Fig. 4
[2] = concentration-response in quadruplicate, at least three independent experiments
[3] = folds more potent than [Y^8S] Cragi-CCK1, calcium assay
[4] = times more potent than non-sulphated Cragi-CCK1, calcium assay

GALRF-amide [oyster GALRF-amide unrelated neuropeptide used as negative control, reference compound]
Calcium response of Cragi-CCKR1 to negative control peptide (Cragi-CCKR1; [1]): No response
Calcium response of Cragi-CCKR2 to negative control peptide (Cragi-CCKR2; [1]): No response

FMRF-amide [reference compound]
Hindgut effect (in words) (oyster hindgut; concentration of 10^−7M): No effect

N=C(N)NCCC[C@H](NC(=O)CNC(=O)CNC(=O)CNC(=O)[C@H](Cc1ccc(OS(=O)(=O)O)cc1)NC(=O)[C@H](CC(=O)O)NC(=O)[C@@H](N)Cc1ccccc1)C(=O)N[C@@H](Cc1c[nH]c2ccccc12)C(N)=O [[Y^3S] Cragi-CCK2] (H-FD[sY]GGGRW-NH2)
EC50 (Cragi-CCKR2; values given in M): > 100000 nM

CC(C)C[C@H](NC(=O)CNC(=O)[C@H](Cc1ccc(OS(=O)(=O)O)cc1)NC(=O)[C@H](CC(=O)O)NC(=O)[C@H](Cc1ccc(OS(=O)(=O)O)cc1)NC(=O)[C@H](CC(=O)O)NC(=O)[C@H](Cc1c[nH]c2ccccc12)NC(=O)[C@H](C)NC(=O)CNC(=O)[C@@H]1CCC(=O)N1)C(=O)NCC(=O)NCC(=O)NCC(=O)N[C@@H](CCCNC(=N)N)C(=O)N[C@@H](Cc1ccccc1)C(N)=O [[Y^6S-Y^8S] Cragi-CCK1] ([pGlu]GAWD[sY]D[sY]GLGGGRF-NH2)
EC50 (Cragi-CCKR1; [2]): 1.1 ± 0.25 nM
Potency relative to mono-sulphated [Y^8S] Cragi-CCK1, Cragi-CCKR1 (Cragi-CCKR1; [3]): 2 folds
Duration, Relaxation (R) (oyster hindgut; Peptide 10^−9M, no peptide 11,80 ± 1,63): 23,82 ± 1,35 min
Duration, Contraction (C) (oyster hindgut; Peptide 10^−9M, no peptide 18,76 ± 1,07): 38,57 ± 3,53 min
Duration, Period (P) (oyster hindgut; Peptide 10^−9M, no peptide 30,57 ± 2,22): 62,39 ± 2,50 min
Amplitude (A) (oyster hindgut; Peptide 10^−9M, no peptide 0,103 ± 0,006): 0,153 ± 0,016 g
Minimal threshold concentration inducing hindgut contraction (oyster hindgut): 10^−9 M
EC50 (Cragi-CCKR2; [2]): 1.98 ± 0.25 nM
Potency relative to mono-sulphated [Y^8S] Cragi-CCK1, Cragi-CCKR2 (Cragi-CCKR2; [3]): 5 folds

FDYGGGRW-NH2 [Cragi-CCK2]
EC50 (Cragi-CCKR1; values given in M): > 100000 nM
EC50 (Cragi-CCKR2; values given in M): > 100000 nM

CC(C)C[C@H](NC(=O)CNC(=O)[C@H](Cc1ccc(O)cc1)NC(=O)[C@H](CC(=O)O)NC(=O)[C@H](Cc1ccc(O)cc1)NC(=O)[C@H](CC(=O)O)NC(=O)[C@H](Cc1c[nH]c2ccccc12)NC(=O)[C@H](C)NC(=O)CNC(=O)[C@@H]1CCC(=O)N1)C(=O)NCC(=O)NCC(=O)NCC(=O)N[C@@H](CCCNC(=N)N)C(=O)N[C@@H](Cc1ccccc1)C(N)=O [Cragi-CCK1] ([pGlu]GAWDYDYGLGGGRF-NH2)
EC50 (Cragi-CCKR1; [2]): 195 ± 20 nM
Duration, Relaxation (R) (oyster hindgut; Peptide 10^−7M, no peptide 10,48 ± 0,78): 16,03 ± 1,13 min
Duration, Contraction (C) (oyster hindgut; Peptide 10^−7M, no peptide 20,18 ± 0,33): 35,23 ± 1,32 min
Duration, Period (P) (oyster hindgut; Peptide 10^−7M, no peptide 30,67 ± 0,67): 51,27 ± 0,15 min
Amplitude (A) (oyster hindgut; Peptide 10^−7M, no peptide 0,161 ± 0,038): 0,203 ± 0,038 g
Minimal threshold concentration inducing hindgut contraction (oyster hindgut): 10^−7 M
EC50 (Cragi-CCKR2; [2]): 462 ± 67 nM

CC(C)C[C@H](NC(=O)CNC(=O)[C@H](Cc1ccc(OS(=O)(=O)O)cc1)NC(=O)[C@H](CC(=O)O)NC(=O)[C@H](Cc1ccc(O)cc1)NC(=O)[C@H](CC(=O)O)NC(=O)[C@H](Cc1c[nH]c2ccccc12)NC(=O)[C@H](C)NC(=O)CNC(=O)[C@@H]1CCC(=O)N1)C(=O)NCC(=O)NCC(=O)NCC(=O)N[C@@H](CCCNC(=N)N)C(=O)N[C@@H](Cc1ccccc1)C(N)=O [[Y^8S] Cragi-CCK1] ([pGlu]GAWDYD[sY]GLGGGRF-NH2)
EC50 (Cragi-CCKR1; [2]): 2.29 ± 1.55 nM
Potency relative to non-sulphated counterpart (Cragi-CCK1), Cragi-CCKR1 (Cragi-CCKR1; [4]): 90 times
Duration, Relaxation (R) (oyster hindgut; Peptide 10^−10M, no peptide 11,08 ± 2,27): 17,62 ± 5,27 min
Duration, Contraction (C) (oyster hindgut; Peptide 10^−10M, no peptide 18,58 ± 1,03): 37,13 ± 3,28 min
Duration, Period (P) (oyster hindgut; Peptide 10^−10M, no peptide 29,66 ± 2,22): 54,75 ± 1,97 min
Amplitude (A) (oyster hindgut; Peptide 10^−10M, no peptide 0,121 ± 0,025): 0,173 ± 0,023 g
Minimal threshold concentration inducing hindgut contraction (oyster hindgut): 10^−10 M
EC50 (Cragi-CCKR2; [2]): 10 ± 1.9 nM
Potency relative to non-sulphated counterpart (Cragi-CCK1), Cragi-CCKR2 (Cragi-CCKR2; [4]): 50 times

CC(C)C[C@H](NC(=O)CNC(=O)[C@H](Cc1ccc(O)cc1)NC(=O)[C@H](CC(=O)O)NC(=O)[C@H](Cc1ccc(OS(=O)(=O)O)cc1)NC(=O)[C@H](CC(=O)O)NC(=O)[C@H](Cc1c[nH]c2ccccc12)NC(=O)[C@H](C)NC(=O)CNC(=O)[C@@H]1CCC(=O)N1)C(=O)NCC(=O)NCC(=O)NCC(=O)N[C@@H](CCCNC(=N)N)C(=O)N[C@@H](Cc1ccccc1)C(N)=O [[Y^6S] Cragi-CCK1] ([pGlu]GAWD[sY]DYGLGGGRF-NH2)
EC50 (Cragi-CCKR1; [2]): 16.4 ± 0.1 nM
Duration, Relaxation (R) (oyster hindgut; Peptide 10^−5M, no peptide 11,35 ± 0,85): 11,23 ± 0,60 min
Duration, Contraction (C) (oyster hindgut; Peptide 10^−5M, no peptide 20,18 ± 0,98): 21 ± 1,42 min
Duration, Period (P) (oyster hindgut; Peptide 10^−5M, no peptide 31,53 ± 1,45): 32,23 ± 1,53 min
Amplitude (A) (oyster hindgut; Peptide 10^−5M, no peptide 0,129 ± 0,019): 0,104 ± 0,021 g
Hindgut response (in words) (oyster hindgut; concentration up to 10^−5M): No response
Activation of Cragi-CCKR2 (in words) (Cragi-CCKR2; doses as high as 10^−5M, calcium assay in HEK293T): inactive; also recorded: No activation
